In patent US20150276755A1, “METHODS FOR DETERMINING RESISTANCE AGAINST MOLECULES TARGETING PROTEINS” (AGENCY FOR SCIENCE, TECHNOLOGY AND RESEARCH, priority 2012, published 2015):
pKd: −log10 of the molar value. “Also recorded” adds a separate entry of the source.

Columns and labels:
HDM2 M62A = molecular target: T1, HDM2 M62A (Homo sapiens, UniProt Q00987, M62A); assay: p53 reporter assay in p53/HDM2-null DKO cells, HDM2 M62A; type: cell-based; settings: 20 μM
T1 construct: expressed in transfected cells; host or cells: DKO mouse embryonic fibroblasts (A12); HCT116 p53+/+ (A28)
Description: (§1) DKO (p53/HDM2 null) cells were maintained in Dulbecco's modified Eagle's medium (DMEM) with 10% foetal calf serum (FCS) and 1% penicillin/streptomycin. The cells were seeded at 1.0×10^5 cells/well in 6-well plates, 24 hours prior to transfection. […] In all cases, the total amount of plasmid DNA transfected per well was equilibrated by addition of the parental vector pcDNA3.1a(+).
(§2) DKO cells were harvested 24 hours after transfection and […] activities were assessed using the Dual-light System (Applied Biosystems) according to the manufacturer's protocol. The β-galactosidase activity was normalized with luciferase activity for each sample. To check for expression levels of relevant proteins via Western blot, 2.5 μg of the cell lysates were subjected to electrophoresis, transferred to nitrocellulose membranes and probed for p53 with horseradish peroxidise conjugated DO1 antibody, for HDM2 and actin with anti-HA antibody and AC15 antibody respectively followed by rabbit anti-mouse.
(§3) Mouse embryonic fibroblast p53/Mdm2 double-knockout (DKO) cells (a kind gift from Guillermina Lozano) and H1299 p53^−/− cells were maintained in Dulbecco's modified Eagle's medium (DMEM) with 10% (v/v) foetal calf serum (FCS) and 1% (v/v) penicillin/streptomycin. The cells were seeded at 1.0×10^5 cells/well in 6-well plates, 24 hours prior to transfection. […]

[1] = molecular target: T2, wild-type HDM2-p53 interaction (Homo sapiens, UniProt Q00987); assay: In vitro pull-down (co-immunoprecipitation, Western blot), wild-type HDM2; type: biochemical; settings: 10 μM
T2 construct: made in house; host or cells: cell-free in vitro transcription-translation (IVT)
Description: (§4) Protein G beads were incubated with anti-HA (1 μg per 10 μL beads) for 1 hour in PEST-3% BSA and subsequently washed twice in PBST-0.1% BSA. IVT-expressed protein was incubated with the beads on a rotator for 30 mins. […] IVT-containing secondary protein was added to the mixture and incubation allowed for 1 hour. Beads were finally washed thrice in PBST-0.1% BSA and thrice with PBS, and bound proteins eluted by resuspension in 20 μL SDS-PAGE loading buffer and incubation at 95° C. for 5 minutes. Where required, blank IVT extract (no template DNA added) was used as control. The eluates were subjected to electrophoresis, transferred to nitrocellulose membranes and probed for p53 with horseradish peroxidise conjugated DO1 antibody (Santa Cruz) or for HDM2 with anti-HA antibody followed by rabbit anti-mouse (Dakocytomation).
(§5) Protein G beads (Invitrogen) were incubated with anti-HA (1 μg per 10 μL beads) for 1 hour in PBST-3% BSA and subsequently washed twice in PBST-0.1% BSA. IVT expressed wild-type or mutant HDM2 was incubated with the beads on a rotator for 30 mins. […] IVT-expressed p53 was added to the mixture and incubation allowed for 1 hour. Beads were finally washed thrice in PBST-0.1% BSA and thrice with PBS, and bound proteins eluted by resuspension in 20 μL SDS-PAGE loading buffer and incubation at 95° C. for 5 minutes. […]

[2] = molecular target: T3, HDM2 M62A-p53 interaction (Homo sapiens, UniProt Q00987, M62A); assay: In vitro pull-down (co-immunoprecipitation, Western blot), HDM2 M62A; type: biochemical; settings: 10 μM
T3 construct: made in house; host or cells: cell-free in vitro transcription-translation (IVT)
Description: as §4, §5

[3] = molecular target: T4, HDM2 Q24R-p53 interaction (Homo sapiens, UniProt Q00987, Q24R); assay: In vitro pull-down (co-immunoprecipitation, Western blot), HDM2 Q24R; type: biochemical; settings: 10 μM
T4 construct: made in house; host or cells: cell-free in vitro transcription-translation (IVT)
Description: as §4, §5

wild-type HDM2 = molecular target: T5, wild-type HDM2 (Homo sapiens, UniProt Q00987); assay: p53 reporter assay in p53/HDM2-null DKO cells, wild-type HDM2; type: cell-based; settings: 20 μM
T5 construct: expressed in transfected cells; host or cells: H1299 p53-/- cells (A5); mouse embryonic fibroblast p53/Mdm2 double-knockout (DKO) cells (A7)
Description: as §1, §2, §3

[4] = molecular target: purified HDM2 (amino acids 1-125) M62A (human) (UniProt Q00987); assay: competitive fluorescence anisotropy against FAM-12-1 peptide, apparent Kd
[5] = molecular target: purified HDM2 (amino acids 1-125), wild-type (human) (UniProt Q00987); assay: as above
[6] = molecular target: purified HDM2 (amino acids 1-125) P20L (human) (UniProt Q00987); assay: as above
[7] = molecular target: purified HDM2 (amino acids 1-125) Q24R (human) (UniProt Q00987); assay: as above
Chain of purified HDM2 (amino acids 1-125) Q24R (human) (Q00987 1-125 Q24R limits assumed): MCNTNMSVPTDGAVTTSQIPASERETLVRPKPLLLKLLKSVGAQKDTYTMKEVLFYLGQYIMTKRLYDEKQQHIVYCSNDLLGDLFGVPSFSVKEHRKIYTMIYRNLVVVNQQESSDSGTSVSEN

T4 sequence (Q00987 whole entry Q24R): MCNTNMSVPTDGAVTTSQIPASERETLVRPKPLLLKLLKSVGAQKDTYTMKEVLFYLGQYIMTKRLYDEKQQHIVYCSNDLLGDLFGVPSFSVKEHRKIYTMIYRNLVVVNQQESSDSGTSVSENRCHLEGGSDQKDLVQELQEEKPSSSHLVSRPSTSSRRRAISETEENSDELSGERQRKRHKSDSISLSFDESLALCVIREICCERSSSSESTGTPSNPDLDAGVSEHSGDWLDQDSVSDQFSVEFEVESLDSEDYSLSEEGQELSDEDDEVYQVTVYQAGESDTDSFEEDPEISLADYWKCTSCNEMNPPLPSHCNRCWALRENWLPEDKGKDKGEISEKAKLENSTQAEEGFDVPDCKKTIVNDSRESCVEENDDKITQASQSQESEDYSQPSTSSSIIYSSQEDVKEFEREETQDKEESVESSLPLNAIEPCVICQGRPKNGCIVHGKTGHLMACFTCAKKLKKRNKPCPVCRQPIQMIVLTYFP
T3 sequence (Q00987 whole entry M62A): as the sequence (Q00987 whole entry Q24R) above, with R24Q, M62A counted along it
Chain of purified HDM2 (amino acids 1-125) P20L (human) (Q00987 1-125 P20L limits assumed): as the sequence (Q00987 1-125 Q24R limits assumed) above, with P20L, R24Q counted along it
Chain of purified HDM2 (amino acids 1-125), wild-type (human) (Q00987 1-125 limits assumed): as the sequence (Q00987 1-125 Q24R limits assumed) above, with R24Q counted along it
Chain of purified HDM2 (amino acids 1-125) M62A (human) (Q00987 1-125 M62A limits assumed): as the sequence (Q00987 1-125 Q24R limits assumed) above, with R24Q, M62A counted along it
T5 sequence (Q00987 whole entry): as the sequence (Q00987 whole entry Q24R) above, with R24Q counted along it
T2 sequence (Q00987 whole entry): as the sequence (Q00987 whole entry Q24R) above, with R24Q counted along it
T1 sequence (Q00987 whole entry M62A): as the sequence (Q00987 whole entry Q24R) above, with R24Q, M62A counted along it

| Molecule | p53 activity restored, of that seen in absence of HDM2 co-transfection (HDM2 M62A) | effect on p53 binding to immobilised HDM2 (Western blot) [1] | effect on p53 binding to immobilised HDM2 (Western blot) [2] | effect on p53 binding to immobilised HDM2 (Western blot) [3] | p53 activity restored, of that seen in absence of HDM2 co-transfection (wild-type HDM2) | pKd [4] | pKd [5] | pKd [6] | pKd [7] |
| --- | --- | --- | --- | --- | --- | --- | --- | --- | --- |
| CC(=O)N[C@H](C(=O)N[C@@H](CO)C(=O)N[C@@H](Cc1ccccc1)C(=O)N[C@]1(C)CCCCCCC=CCCC[C@@](C)(C(N)=O)NC(=O)[C@H](CC(C)C)NC(=O)[C@H](CC(C)C)NC(=O)[C@H](C)NC(=O)[C@H](Cc2c[nH]c3cc(Cl)ccc23)NC(=O)[C@H](Cc2ccc(O)cc2)NC(=O)[C@H](CCC(=O)O)NC1=O)[C@@H](C)O [MO11] | 47% | showed inhibition of p53 binding | showed inhibition of p53 binding; also recorded: abrogate the mutant HDM2-p53 interaction as efficiently as Nutlin inhibits the wildtype HDM2-p53 interaction | showed inhibition of p53 binding; also recorded: abrogate the mutant HDM2-p53 interaction as efficiently as Nutlin inhibits the wildtype HDM2-p53 interaction | 51% | – | – | – | – |
| p53 peptide | – | – | – | – | – | 7.53 | 7.86 | 7.76 | 7.98 |
